Several values for one entry are separate records, joined by “and”; a condition that tells them apart may be missing. Equal entries are not always repeated.
Target: EGFR (UniProt P00533)
Experiment: Inhibition of EGFR Kinase Activity

Chain of EGFR (P00533 whole entry, looked up): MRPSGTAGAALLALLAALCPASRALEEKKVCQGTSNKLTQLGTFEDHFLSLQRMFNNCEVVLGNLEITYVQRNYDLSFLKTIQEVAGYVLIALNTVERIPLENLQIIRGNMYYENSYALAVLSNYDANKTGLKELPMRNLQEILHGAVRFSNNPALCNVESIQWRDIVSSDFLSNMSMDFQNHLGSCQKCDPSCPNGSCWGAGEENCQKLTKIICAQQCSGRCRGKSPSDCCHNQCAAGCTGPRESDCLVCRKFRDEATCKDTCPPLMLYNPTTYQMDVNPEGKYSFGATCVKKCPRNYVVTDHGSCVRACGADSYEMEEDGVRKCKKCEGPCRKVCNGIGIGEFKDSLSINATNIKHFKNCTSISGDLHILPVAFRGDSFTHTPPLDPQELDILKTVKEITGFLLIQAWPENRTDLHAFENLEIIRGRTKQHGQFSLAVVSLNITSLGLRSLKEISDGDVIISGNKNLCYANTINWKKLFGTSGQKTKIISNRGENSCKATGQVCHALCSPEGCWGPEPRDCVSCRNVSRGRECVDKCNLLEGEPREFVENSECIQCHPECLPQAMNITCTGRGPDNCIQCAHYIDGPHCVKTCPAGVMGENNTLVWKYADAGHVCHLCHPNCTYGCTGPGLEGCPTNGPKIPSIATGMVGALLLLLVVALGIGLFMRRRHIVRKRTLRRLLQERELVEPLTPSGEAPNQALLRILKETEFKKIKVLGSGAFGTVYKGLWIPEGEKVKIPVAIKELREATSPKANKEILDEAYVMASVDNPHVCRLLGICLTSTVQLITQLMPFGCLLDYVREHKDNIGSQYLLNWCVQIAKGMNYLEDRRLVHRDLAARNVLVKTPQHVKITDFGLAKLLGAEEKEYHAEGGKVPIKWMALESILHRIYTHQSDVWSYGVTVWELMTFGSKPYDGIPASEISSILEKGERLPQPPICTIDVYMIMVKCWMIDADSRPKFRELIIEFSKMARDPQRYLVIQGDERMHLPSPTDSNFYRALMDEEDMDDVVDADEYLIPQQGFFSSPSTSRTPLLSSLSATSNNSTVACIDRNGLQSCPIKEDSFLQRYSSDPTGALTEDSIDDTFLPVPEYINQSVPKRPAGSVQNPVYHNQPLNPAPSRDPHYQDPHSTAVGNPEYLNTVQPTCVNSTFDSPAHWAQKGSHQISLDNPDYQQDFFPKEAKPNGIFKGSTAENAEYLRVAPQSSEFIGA

Compared with CN(C)CCCCNN1=CC=C2N=CN=C(Nc3cccc(C)c3)C2=C1, Cc1cccc(NC2=NC=NC3=CC=N(NCCCn4ccnc4)C=C23)c1 is 1.5-fold lower in IC50: 5.4 nM for the first, 3.5 nM for the second. The second is the more potent here.

Going from Oc1ccc2c(Nc3cccc(Br)c3)ncnc2c1 to COc1ccc(Nc2ncnc3cc(N)ncc23)cc1, the IC50 rises from 4.7 nM to 670 nM (140-fold). The first is the more potent here.

First: Nc1cc2ncnc(Nc3cccc(O)c3)c2cn1
Second: CN(C)CCCCCNN1=CC=C2N=CN=C(Nc3cccc(Br)c3)C2=C1
The IC50 of the first is 8.2-fold higher: 70 nM for the first, 8.5 nM for the second. The second is the more potent here.

Compared with Clc1cc2c(Nc3cccc(Br)c3)ncnc2cn1, CN(C)c1cc2ncnc(Nc3cccc(Br)c3)c2cc1N is 4-fold higher in IC50: 40 nM for the first, 160 nM for the second. The first is the more potent here.

Compared with COc1cc2ncnc(Nc3cccc(Br)c3)c2cn1, CNc1ccc2ncnc(Nc3cccc(Br)c3)c2c1 is 9.8-fold lower in IC50: 39 nM for the first, 4 nM for the second.

Compared with CCCOc1cc2ncnc(Nc3cccc(Br)c3)c2cc1OCCC, O=[N+]([O-])c1ccc2c(Nc3cccc(Cl)c3)ncnc2c1 is 4800-fold higher in IC50: 0.17 nM for the first, 812 nM for the second. The first is the more potent here.

First: Nc1cc2ncnc(Nc3ccc(C(F)(F)F)cc3)c2cn1
Second: Brc1cccc(Nc2ncnc3cnc(NCCn4ccnc4)nc23)c1
The IC50 of the first is 2100-fold higher: 4780 nM for the first, 2.3 nM for the second. The second is the more potent here.

First: Nc1cc2ncnc(Nc3ccccc3)c2cn1
Second: Cc1cccc(Nc2ncnc3cnc(NCCc4c[nH]cn4)nc23)c1
The IC50 of the first is 84-fold higher: 251 nM for the first, 3 nM for the second.

Compared with COc1cc2ncnc(Nc3cccc(Br)c3)c2cc1[N+](=O)[O-], Brc1cccc(Nc2ncnc3cnc(NCCN4CCOCC4)nc23)c1 is 19-fold lower in IC50: 15 nM for the first, 0.8 nM for the second.

Compared with OCN(CO)N1=CC=C2N=CN=C(Nc3cccc(Br)c3)C2=C1, CCOc1cc2ncnc(Nc3cccc(Br)c3)c2cc1OCC is 2300-fold lower in IC50: 14 nM for the first, 0.006 nM for the second. The second is the more potent here.

Compared with CN1CCN(CCCNN2=CC=C3N=CN=C(Nc4cccc(Br)c4)C3=C2)CC1, Fc1cc2ncnc(Nc3cccc(Br)c3)c2cn1 is 2.6-fold higher in IC50: 5 nM for the first, 13 nM for the second. The first is the more potent here.

First: COc1cc2c(Nc3cccc(Br)c3)ncnc2cn1
Second: CN(C)CCCCNN1=CC=C2N=CN=C(Nc3cccc(Br)c3)C2=C1
The IC50 of the first is 2.8-fold lower: 2.6 nM for the first, 7.4 nM for the second. The first is the more potent here.

Going from CN1CCN(CCCNN2=CC=C3N=CN=C(Nc4cccc(C)c4)C3=C2)CC1 to Nc1cc2ncnc(Nc3ccccc3N)c2cn1, the IC50 rises from 5.6 nM to 5370 nM (960-fold). The first is the more potent here.

First: NNN1=CC=C2N=CN=C(Nc3cccc(Br)c3)C2=C1
Second: OCCN(CCO)N1=CC=C2N=CN=C(Nc3cccc(Br)c3)C2=C1
The IC50 of the first is 1.7-fold lower: 7.2 nM for the first, 12 nM for the second. The first is the more potent here.

Going from CN(C)CCNN1=CC=C2N=CN=C(Nc3cccc(Br)c3)C2=C1 to CN(C)c1ccc2c(Nc3cccc(Br)c3)ncnc2c1, the IC50 falls from 45 nM to 11 nM (4.1-fold). The second is the more potent here.

First: CN(C)c1ccc2c(Nc3cccc(Br)c3)ncnc2n1
Second: CN(CC(=O)O)N1=CC=C2N=CN=C(Nc3cccc(Br)c3)C2=C1
The IC50 of the first is 21-fold higher: 330 nM for the first, 16 nM for the second. The second is the more potent here.

First: Nc1cc2c(Nc3cccc(Br)c3)ncnc2cc1Cl
Second: Brc1cccc(NC2=NC=NC3=CC=N(NCCc4c[nH]cn4)C=C23)c1
The IC50 of the first is 7.3-fold higher: 6.6 nM for the first, 0.9 nM for the second. The second is the more potent here.

COc1ccc2c(Nc3cccc(Br)c3)ncnc2n1 and Nc1cc2ncnc(Nc3ccccc3Br)c2cn1 are within 1.5-fold of each other in IC50: 260 nM for the first, 245 nM for the second.

Compared with COc1ccccc1Nc1ncnc2cc(N)ncc12, CNc1cc2ncnc(Nc3cccc(Br)c3)c2cc1N is 5400-fold lower in IC50: 3710 nM for the first, 0.69 nM for the second. The second is the more potent here.

Compared with OCC(O)CNN1=CC=C2N=CN=C(Nc3cccc(Br)c3)C2=C1, CNc1ncc2ncnc(Nc3ccccc3)c2n1 is 14-fold higher in IC50: 0.9 nM for the first, 13 nM for the second. The first is the more potent here.

Compared with O=[N+]([O-])c1ccc2c(Nc3cccc(I)c3)ncnc2c1, O=[N+]([O-])c1ccc2c(Nc3cccc(Br)c3)ncnc2c1 is 1.8-fold higher in IC50: 549 nM for the first, 1000 nM for the second.

Compared with Fc1cc2c(Nc3cccc(Br)c3)ncnc2cn1, COc1ccc2ncnc(Nc3cccc(Br)c3)c2c1 is 2.8-fold higher in IC50: 125 nM for the first, 354 nM for the second.

Compared with CN(C)c1cccc(Nc2ncnc3cc(N)ncc23)c1, Cc1cccc(Nc2ncnc3cnc(NCCN4CCOCC4)nc23)c1 is 790-fold lower in IC50: 1810 nM for the first, 2.3 nM for the second. The second is the more potent here.

First: Cc1cccc(Nc2ncnc3ccccc23)c1
Second: Fc1cccc(Nc2ncnc3ccccc23)c1
The IC50 of the first is 16-fold higher: 912 nM for the first, 56 nM for the second. The second is the more potent here.

Going from Nc1cc2ncnc(Nc3cccc(Br)c3)c2cc1N to CNc1ncc2ncnc(Nc3cccc(Br)c3)c2n1, the IC50 rises from 0.12 nM to 0.7 nM (5.8-fold).

First: COc1cc2ncnc(Nc3cccc(C(F)(F)F)c3)c2cc1OC
Second: Nc1ccc2ncnc(Nc3cccc(Br)c3)c2n1
The IC50 of the first is 32-fold lower: 0.24 nM for the first, 7.7 nM for the second.

Compared with Ic1cccc(Nc2ncnc3ccccc23)c1, CN(CCO)N1=CC=C2N=CN=C(Nc3cccc(Br)c3)C2=C1 is 31-fold lower in IC50: 81 nM for the first, 2.6 nM for the second.

First: OC(=O)CNN1=CC=C2N=CN=C(Nc3cccc(Br)c3)C2=C1
Second: CN(C)c1ccc2ncnc(Nc3cccc(Br)c3)c2n1
The IC50 of the first is 6.5-fold lower: 1.5 nM for the first, 9.7 nM for the second.

Compared with FC(F)(F)c1cccc(Nc2ncnc3ccccc23)c1, Brc1cccc(NC2=NC=NC3=CC=N(NCCCN4CCOCC4)C=C23)c1 is 310-fold lower in IC50: 588 nM for the first, 1.9 nM for the second. The second is the more potent here.

First: COc1cc2ncnc(Nc3ccccc3)c2cc1OC
Second: OCCNN1=CC=C2N=CN=C(Nc3cccc(Br)c3)C2=C1
The IC50 of the first is 140-fold higher: 29 nM for the first, 0.2 nM for the second. The second is the more potent here.

First: COc1cc2ncnc(Nc3ccc(Br)cc3)c2cc1OC
Second: OC(=O)CCCNN1=CC=C2N=CN=C(Nc3cccc(Br)c3)C2=C1
The IC50 of the first is 4.8-fold higher: 0.97 nM for the first, 0.2 nM for the second. The second is the more potent here.

Compared with Brc1cccc(Nc2ncnc3cnc(NCCc4c[nH]cn4)nc23)c1, O=[N+]([O-])c1ccc2ncnc(Nc3cccc(Br)c3)c2c1 is 4600-fold higher in IC50: 0.2 nM for the first, 912 nM for the second.

Compared with Nc1cc2ncnc(Nc3cccc(Br)c3)c2cn1, Nc1cc2ncnc(Nc3cccc(F)c3)c2cn1 is 85-fold higher in IC50: 10 nM for the first, 850 nM for the second. The first is the more potent here.

First: Brc1cccc(Nc2ncnc3ccccc23)c1
Second: OC(=O)CCNN1=CC=C2N=CN=C(Nc3cccc(Br)c3)C2=C1
The IC50 of the first is 46-fold higher: 27.5 nM for the first, 0.6 nM for the second.

Compared with COc1cc2ncnc(Nc3cccc(Br)c3)c2cc1N, CNc1cc2ncnc(Nc3cccc(Br)c3)c2cc1[N+](=O)[O-] is 18-fold higher in IC50: 3.8 nM for the first, 69 nM for the second. The first is the more potent here.

Going from CN(CC(O)CO)N1=CC=C2N=CN=C(Nc3cccc(Br)c3)C2=C1 to CC(=O)Nc1cc2ncnc(Nc3cccc(Br)c3)c2cn1, the IC50 rises from 3.2 nM to 29 nM (9.1-fold). The first is the more potent here.

First: CN(C)c1ccc(Nc2ncnc3cc(N)ncc23)cc1
Second: Nc1ccc2c(Nc3ccccc3)ncnc2c1
The IC50 of the first is 49-fold higher: 4890 nM for the first, 100 nM for the second. The second is the more potent here.

Compared with CN(C)CCCNN1=CC=C2N=CN=C(Nc3cccc(Br)c3)C2=C1, Brc1cccc(NC2=NC=NC3=CC=N(NCCCn4ccnc4)C=C23)c1 is 18-fold lower in IC50: 8.9 nM for the first, 0.5 nM for the second. The second is the more potent here.

Going from Cc1cccc(Nc2ncnc3cnc(N)nc23)c1 to Oc1cc2ncnc(Nc3cccc(Br)c3)c2cc1O, the IC50 falls from 17 nM to 0.17 nM (100-fold).

First: Nc1ncc2ncnc(Nc3cccc(Br)c3)c2n1
Second: COc1ccc2c(Nc3cccc(Br)c3)ncnc2c1
The IC50 of the first is 6.7-fold lower: 1.5 nM for the first, 10 nM for the second. The first is the more potent here.

First: Cc1cccc(Nc2ncnc3cnc(Cl)nc23)c1
Second: COc1cc2ncnc(Nc3cccc(I)c3)c2cc1OC
The IC50 of the first is 430-fold higher: 380 nM for the first, 0.89 nM for the second. The second is the more potent here.

Going from Cc1cccc(Nc2ncnc3cnc(N(C)C)nc23)c1 to O=[N+]([O-])c1cc2c(Nc3cccc(Br)c3)ncnc2cc1Cl, the IC50 rises from 4 nM to 25 nM (6.2-fold).

Going from Nc1ccc2ncnc(Nc3cccc(C(F)(F)F)c3)c2c1 to Brc1cccc(NC2=NC=NC3=CC=N(NCCCCN4CCOCC4)C=C23)c1, the IC50 falls from 575 nM to 5.4 nM (110-fold). The second is the more potent here.

Brc1cccc(NC2=NC=NC3=CC=N(NCCN4CCOCC4)C=C23)c1 and CNc1ccc2ncnc(Nc3cccc(Br)c3)c2n1 are within 1.5-fold of each other in IC50: 3.2 nM for the first, 3.1 nM for the second.

First: CC(=O)Nc1ccc2c(Nc3cccc(Br)c3)ncnc2c1
Second: OCCN(CCO)CCCNN1=CC=C2N=CN=C(Nc3cccc(Br)c3)C2=C1
The IC50 of the first is 33-fold higher: 40 nM for the first, 1.2 nM for the second. The second is the more potent here.

Compared with Nc1ccc2ncnc(Nc3ccccc3)c2c1, Clc1ncc2ncnc(Nc3cccc(Br)c3)c2n1 is 9.3-fold lower in IC50: 776 nM for the first, 83 nM for the second. The second is the more potent here.

First: CN(C)CCN(C)N1=CC=C2N=CN=C(Nc3cccc(Br)c3)C2=C1
Second: COc1ncc2ncnc(Nc3cccc(Br)c3)c2n1
The IC50 of the first is 11-fold higher: 40 nM for the first, 3.8 nM for the second. The second is the more potent here.

First: Clc1cccc(Nc2ncnc3ccccc23)c1
Second: OS(=O)(=O)CCNN1=CC=C2N=CN=C(Nc3cccc(Br)c3)C2=C1
The IC50 of the first is 17-fold higher: 23.4 nM for the first, 1.4 nM for the second. The second is the more potent here.

In the case of CN(C)c1ccc2ncnc(Nc3cccc(Br)c3)c2c1, the IC50 is reported as 85 nM.

For COc1ccc2ncnc(Nc3ccccc3)c2c1, the IC50 was 56 nM and 120 nM.
